Test results from article PMC10224510, “Luteolin and Vernodalol as Bioactive Compounds of Leaf and Root Vernonia amygdalina Extracts: Effects on α-Glucosidase, Glycation, ROS, Cell Viability, and In Silico ADMET Parameters” (Pharmaceutics, 2023).

Molecular target: α-glucosidase (EC 3.2.1.20, Saccharomyces cerevisiae type I)
Assay: enzyme inhibition with pNPG substrate, absorbance at […] nm
Type: biochemical

O=c1cc(-c2ccc(O)c(O)c2)oc2cc(O)cc(O)c12 [luteolin]
IC50: 16.2 µM
